# Entries after “also recorded” stand apart in the source; their conditions may differ.
# Legend:
# [1] = system: HBEC3 KT cells; test: reaction-diffusion (FKPP/Porous-Fisher) numerical model and logistic growth fit of cell-free area closure; design: species or system human; details: for growth rate λ: from logistic growth equation, U at 16 h and U0; for D0 / D1 / m: Replicate 1
# Protocol: Numerical model: The Fisher—Kolmogorov—Petrovsky—Piskunov (FKPP) reaction-diffusion equation is routinely used to model the closure of rectangular cell-free areas in scratch-based assays^27,47,48. The FKPP equation consists of a diffusion term that describes cell migration and a source term representing cell proliferation. The one-dimensional axisymmetric form of the FKPP equation is given by equation (6):^49
# where U denotes the cell density (cells mm^−2) and D the cell diffusivity (mm^2 h^−1). The source term consists of a logistic growth function G=λ(1−U/K) with growth rate λ(h^−1) and carrying capacity K (cells mm^−2)^47. The carrying capacity is the maximum density for a cell monolayer when contact inhibition reduces the net cell proliferation to zero^47. The classical FKPP model assumes a constant cell diffusivity D=D0, where D0 is the diffusivity for isolated cells^27,47. In contrast, the Porous-Fisher model, which is an extension of the FKPP model, uses a diffusivity function D=D0(U/K)^m that increases with cell density (m>0), where D0 denotes the maximum diffusivity^47,50.
# Besides cell migration, cell proliferation leads to the closure of cell-free areas. To determine […], a logistic growth equation^51 was used as shown in equations 7 and 8:
# where U0 denotes the initial cell density. The maximum cell density determined by counting cells in the confluent regions of annular HBEC 3KT monolayers gives K=1690 cells mm^−2, which is consistent with the previously reported values^28,52. Experimentally derived values of U at 16 h and U0 were used to calculate λ from Equation 8.
# Brightfield images of the annular monolayers were taken every 2 h over 16 h to track the closures of the cell-free areas on TCT surfaces. Consistent with the monolayer geometry, circular tracks of ˜0.14 mm width were superimposed on the brightfield images to manually count the cells within the domain 0≤r≤Rmax. The total number of cells counted in each track was divided by the respective annulus area to generate experimental cell density datasets. In the cell density plots, each track was represented by the radial distance of its midpoint from the center of the annular monolayer.
# The finite volume method (FVM) with a time marching scheme was used to discretize and predict cell density (Up) values from Equation 6. A linear combination of the classical FKPP and Porous-Fisher diffusivity functions were used, i.e., D=D0+D1(U/K)^m, to model the spatiotemporal change in cell density on the TCT surfaces. The combined diffusivity function was previously used to fit cell density profiles of scratch assays with rectangular cell-free areas^50. A zero net flux boundary condition was imposed at both r=0 and r=Rmax^28,50.
# As the cell density decreases at the boundary Rmax, the zero net flux condition applied at this boundary is an approximation. A Genetic Algorithm (GA)-based error minimization approach was implemented to minimize the root mean squared error (RMSE) between Up and the experimental (Uexp) cell density values^53 as shown in equation 9.
# The cell density was measured at 15 locations within 0≤r≤Rmax and the index i denotes the location number. The index j indicates timepoints, where j=1, 2, 3 and 4 corresponds to t=4, 8, 12 and 16 h. […] The limits for D0 are 0≤D0≤0.004 mm^2 h^−1, where D0=0.004 mm^2 h^−1 is the maximum isolated-cell diffusivity value reported in the literature^28,50.
# The experimentally obtained cell-free area closure rates were approximately two orders higher than the maximum value of D0(Section 2.3). […] The exponent m determines whether the diffusivity D changes linearly or non-linearly with a change in cell density. However, the biological meaning of m is not yet fully understood^47. Here, the limits 0≤m≤4 are considered, where m=4 is the highest value reported in the literature^28,50. The experimentally derived values of λ are used in the model. […]
# [2] = system: HBEC3 KT cells; test: cell-free area closure of annular monolayers formed by magnetic exclusion; assay type: cell-based, human; details: for closure rate of cell-free area: 0 h to 16 h, N=3
# Protocol: The cells were maintained at 37° C. and 5% CO2 in a humidified atmosphere.
# The magnetic exclusion technique was applied to form annular HBEC3 KT monolayers in which HBEC3 KT cells were trypsinized at ˜80% confluency. A 96-well flat-bottom TCT plate (IBIDI) was placed on an array of coaxially arranged ring and cylinder magnets (N52 grade, Zigmyster Magnets). The stock gadolinium-based paramagnetic solution (1 M) was diluted to 25×10^−3 M using the serum-free culture medium. A 250 μL suspension of ˜50,000 cells in 25×10^−3 M paramagnetic solution was added to the wells. After a 3 h incubation period (37° C. and 5% CO2 in a humidified atmosphere), the well plate was removed from the magnet array. The paramagnetic solution was removed, and the wells were washed twice with 200 μL culture medium. […] Tissue culture wells were plasma treated to enhance the attachment of the ECM proteins to the well surfaces. A 300 μL solution of collagen I (500 μg mL^−1) and fibronectin (12 μg mL^−1) was added to the wells. The well plate was incubated at 4° C. overnight, and subsequently, the coated wells were rinsed with phosphate-buffered saline (PBS). Annular HBEC3 KT monolayers were assembled magnetically on the coated surfaces. A fluorescent dye solution of 2 μM Calcein AM and Hoechst 33342 (2 drops per mL) was used to stain the monolayers. Brightfield and fluorescent images were taken using a 10× objective of an EVOS M7000 inverted microscope (ThermoFisher). Excitation/emission wavelengths of 470/525 nm and 357/447 nm were used for Calcein AM and Hoechst 33342, respectively.
# The experimental study also involved assessing annular HBEC3 KT monolayer formation by gravitational settling. Annular inserts were 3D printed with a Formlabs Form 2 printer using a clear resin (RS-F2-GPCL-04). The inserts were attached to the well surfaces of a 12-well plate using patterned double-sided silicone adhesive tapes. The well plates containing the inserts were sterilized with UV radiation. A 100 μL suspension of ˜50,000 HBEC3 KT cells in culture medium was added to the inserts. After a 3 h incubation period, the inserts were removed, and the wells were washed twice with 500 μL culture medium.
# Cell counting and geometric measurements were automatically determined in the experimental study from fluorescent images with ImageJ Fiji. The watershed segmentation algorithm (Process—Binary—Watershed) was used to distinguish cells in high cell density regions. The brightfield image contrast was adjusted using the Enhance Local Contrast (CLAHE) ImageJ plugin to measure the cell-free area. The Sobel edge detection algorithm (Process—Find edges) was used to highlight the boundaries of the monolayers. Next, image smoothing was performed using the Gaussian Blur filter (Process—Filter—Gaussian Blur). The cell-free areas were measured automatically after setting the image threshold. The equivalent diameters were calculated from the cell-free areas. The monolayer annulus width was determined by taking the average of the annulus widths measured at four orthogonal positions. The straight-line tool of ImageJ was used for the measurements.
# The cell-free area closure of the annular monolayers was also studied in the experiments. […] The annular monolayers were produced on TCT and collagen I-fibronectin coated well surfaces to investigate the influence of the underlying substrate on the closure rate.
# The initial boundary of the cell-free region is marked by a white dotted line (e.g., see FIG. 6A).
# The closure rates are calculated by measuring the differences between the mean initial and final cell-free areas at 0 h and 16 h.
# [3] = system: HBEC3 KT cells; test: transcriptome analysis (Clariom S microarray); assay type: cell-based, human; details: 25×10^−3 M paramagnetic solution 3 h, RNA after 24 h, 21,448 genes, fold-change cutoff 2, FDR p<0.05, N=4
# Protocol: The experimental study also involved performing transcriptome analysis. A 1.5 mL suspension of ˜500,000 HBEC3 KT cells in 25×10^−3 M paramagnetic solution was added to the wells of a 12-well TCT plate. Following a 3 h incubation period, the paramagnetic solution was replaced with the culture medium. After 24 h, total RNA was isolated and purified using RNeasy Mini Kit (Qiagen) as per the manufacturer's protocol. The RNA concentration and purity were measured using a spectrophotometer (NanoDrop, ThermoFisher). Transcriptome analysis was performed using Clariom S microarray gene chips (ThermoFisher).
# In the experimental study, all statistical tests were performed using the GraphPad Prism software (version 9.0.0). Two-way ANOVA with Bonferroni post hoc tests were performed to assess the effect of residual Gd^3+ on cell viability and metabolism over time. […] A p-value<0.05 was considered statistically significant. The statistical evaluation of the microarray datasets was performed using the transcriptome analysis console (TAC) software (ThermoFisher). The raw gene expression data were normalized using the signal space transformation-robust multiarray analysis (SST-RMA) algorithm^57. A fold-change cutoff value of 2 was used to identify the differentially expressed genes^42. […]
# [4] = system: HBEC3 KT cells; test: live/dead assay (NucBlue Live / NucGreen Dead); assay type: cell-based
# Protocol: The experimental study also involved performing live/dead assays. A 400 μL suspension of ˜5000 HBEC3 KT cells in 25×10^−3 M paramagnetic solution was added to the wells of a 48-well TCT plate. After a 3 h incubation period, the paramagnetic solution was replaced with the culture medium. As controls, an equal number of cells were seeded into wells containing only the culture medium. The cell viability was assessed using the NucBlue Live and NucGreen Dead nuclear acid stains (ReadyProbes, ThermoFisher). Fluorescent images were taken at 24, 48, 96, and 144 h. Excitation/emission wavelengths of 357/447 nm and 470/525 nm were used for NucBlue and NucGreen, respectively. The quantification of live and dead cells was performed using ImageJ Fiji.
# In the experimental study, all statistical tests were performed using the GraphPad Prism software (version 9.0.0). Two-way ANOVA with Bonferroni post hoc tests were performed to assess the effect of residual Gd^3+ on cell viability and metabolism over time. […] A p-value<0.05 was considered statistically significant. […]
# (§1) The effect of the residual Gd^3+ on cell viability was assessed at 24, 48, 96, and 144 h using a live/dead assay. […] Cell metabolism, which is an indicator of viability, was also measured using a resazurin-based assay (Presto Blue HS). The increase in the fluorescence intensity values over time indicates cell proliferation.
# [5] = system: HBEC3 KT cells; test: resazurin-based metabolism assay (Presto Blue HS); assay type: cell-based; details: 25×10^−3 M paramagnetic solution 3 h, then 24, 48, 96 and 144 h
# Protocol: The experimental study also involved performing a metabolism assay. A 250 μL suspension of ˜4000 HBEC3 KT cells in 25×10^−3 M paramagnetic solution was added to the wells of a 96-well plate. Following a 3 h incubation period, the paramagnetic solution was replaced with the culture medium. An equal number of cells suspended in the culture medium were added to the wells as controls. A resazurin-based assay (Presto Blue HS, ThermoFisher) was used to analyze cell metabolism at 24, 48, 96, and 144 h. The fluorescence intensity was measured at multiple spots within each well using excitation/emission wavelengths of 560/590 nm (SpectraMax i3, Molecular Devices). Blank wells containing only culture medium were used to account for background fluorescence. The average fluorescence intensity of the blanks was subtracted from the average fluorescence value obtained from each well of the Gadolinium and control groups.
# In the experimental study, all statistical tests were performed using the GraphPad Prism software (version 9.0.0). […]
# as §1
# [6] = system: cells; details: concentration of 25 mM; cited from earlier work
# [7] = EGF 0.16 ng mL^−1, TCT surfaces
# [8] = EGF 0.80 ng mL^−1, TCT surfaces
molecule,measurement,setting,value
epidermal growth factor [EGF],growth rate λ,[1]; 0.16 ng mL^−1 EGF,~0.03 h⁻¹
same,growth rate λ,[1]; 0.8 ng mL^−1 EGF,~0.03 h⁻¹
same,λ,[1]; EGF 0.16 ng mL^−1,2.91 h^−1 (×10^−2)
same,D0,[1]; [7],3.06 mm^2 h^−1 (×10^−3)
same,D1,[1]; [7],3.02 mm^2 h^−1
same,m,[1]; [7],1.97
same,"φ (dimensionless number, higher indicates faster closure)","[1]; EGF 0.16 ng mL^−1, tmax=24 h",3.23
same,λ,[1]; EGF 0.80 ng mL^−1,2.91 h^−1 (×10^−2)
same,D0,[1]; [8],3.91 mm^2 h^−1 (×10^−3)
same,D1,[1]; [8],3.75 mm^2 h^−1
same,m,[1]; [8],2.62
same,"φ (dimensionless number, higher indicates faster closure)","[1]; EGF 0.80 ng mL^−1, tmax=24 h",3.60
same,closure rate of cell-free area,"[2]; TCT surfaces, 0.16 ng mL^−1 EGF",~0.56±0.05 mm^2 h^−1
same,closure rate of cell-free area,"[2]; TCT surfaces, 0.8 ng mL^−1 EGF",~0.58±0.01 mm^2 h^−1
same,closure rate of cell-free area,"[2]; collagen I-fibronectin surfaces, 0.16 ng mL^−1 EGF",~0.61±0.01 mm^2 h^−1
same,closure rate of cell-free area,"[2]; collagen I-fibronectin surfaces, 0.8 ng mL^−1 EGF",~0.62±0.02 mm^2 h^−1
same,change in cell-free areas,"[2]; collagen I-fibronectin surfaces, 0.8 ng mL^−1 EGF, at 4 h, in contrast to TCT surfaces",significant decrease
same,closure of cell-free regions,"[2]; collagen I-fibronectin surfaces, 0.8 ng mL^−1 EGF, at 16 h",near-complete closure
[Gd+3] [Gd^3+],differential gene expression / impact on transcriptional profiles,[3],no statistically significant differentially expressed genes; also recorded: statistically insignificant
same,effect on cell viability (viable cell counts),"[4]; 25×10^−3 M paramagnetic solution 3 h, then 24, 48, 96 and 144 h, vs control",insignificant
same,toxicity to the cells,"[4]; live/dead and metabolism assays, residual Gd^3+",not toxic
same,cell metabolism (fluorescence intensity) vs control,[5],No significant difference
same,effect on closure of magnetically assembled monolayers,"[2]; vs gravity-assisted monolayers, no EGF, 0 and 16 h, TCT surfaces",insignificant
same,effect on cell viability,[6],does not affect cell viability
